In patent US4459290A, “C-23-Modified derivatives of OMT, pharmaceutical compositions and method of use” (priority 1982, dated 1984):
Values after ≈ are worked out from the molar mass of the structure shown. Like-named read-outs stand apart in the source and are kept apart here.

Assays:
[1] = test system: these strains; test: Activity against the strains of Table VI, agar-dilution; format: cell-based; conditions: at the levels tested
Method: (§1) Especially noteworthy is the improved activity against gram-negative bacteria for several derivatives when compared to the activity of OMT. […] The MIC's in Tables V and VI were determined by standard agar-dilution assays. The MIC's in Table VII were obtained using a conventional broth-dilution microtiter test.

[2] = test system: Streptococcus pneumoniae Park I; test: microbe, parasite or virus in culture; format: cell-based; conditions: Streptococcus pneumoniae; read-out: MIC
Method: as §1

[3] = test system: Escherichia coli TEM; test: MIC, standard agar-dilution assay (Table V); format: cell-based; conditions: Escherichia coli
Method: (§2) The MIC's in Tables V and VI were determined by standard agar-dilution assays. The MIC's in Table VII were obtained using a conventional broth-dilution microtiter test.

[4] = test system: Haemophilus influenzae Holt; test: MIC, standard agar-dilution assay (Table V); format: cell-based; conditions: Haemophilus influenzae
Method: as §2

[5] = test system: Streptococcus pyogenes C203; test: MIC, standard agar-dilution assay (Table V); format: cell-based; conditions: Streptococcus pyogenes, C203
Method: as §2

[6] = test system: Haemophilus influenzae R252; test: MIC, standard agar-dilution assay (Table V); format: cell-based; conditions: Haemophilus influenzae, R252
Method: as §2

[7] = test system: Pasteurella multocida 68C; test: MIC, broth-dilution microtiter test (Table VII); format: cell-based; conditions: Pasteurella multocida; P. multocida 68C; broth-dilution microtiter; read-out: MIC
Procedure, shortened: (§3)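 Each MIC derives from a dilution series, either on solid agar (Enterobacter aerogenes) or in liquid broth within microtiter plates (staphylococcal and Pasteurella strains).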

[8] = test system: Pasteurella hemolytica 22C; test: MIC, broth-dilution microtiter test (Table VII); format: cell-based; conditions: Pasteurella, P. hemolytica 22C, read-out: MIC
Procedure, shortened: (§4)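 Conventional dilution MICs: agar for Enterobacter, microtiter broth for Staphylococcus and Pasteurella.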

[9] = test system: Staphylococcus aureus; test: MIC, broth-dilution microtiter test (Table VII); format: cell-based; conditions: Staphylococcus aureus; S. aureus; broth-dilution microtiter; read-out: MIC
Procedure, shortened: as §3

[10] = test system: Pasteurella multocida 60A; test: MIC, broth-dilution microtiter test (Table VII); format: cell-based; conditions: Pasteurella multocida; P. multocida 60A, avian isolate; broth-dilution microtiter; read-out: MIC
Procedure, shortened: as §3

[11] = test system: Streptococcus sp. 80; test: MIC, broth-dilution microtiter test (Table VII); format: cell-based; conditions: Streptococcus sp. 80; broth-dilution microtiter; read-out: MIC
Method: as §1

[12] = test system: Mycoplasma gallisepticum; test: MIC, broth-dilution microtiter test (Table VII); format: cell-based; conditions: Mycoplasmoides gallisepticum; M. gallisepticum; broth-dilution microtiter; read-out: MIC
Method: as §1

[13] = test system: Mycoplasma hyorhinis; test: MIC, broth-dilution microtiter test (Table VII); format: cell-based; conditions: M. hyorhinis; broth-dilution microtiter; read-out: MIC
Method: as §1

[14] = test system: Pasteurella multocida 40G; test: MIC, broth-dilution microtiter test (Table VII); format: cell-based; conditions: Pasteurella multocida; P. multocida 40G; broth-dilution microtiter; read-out: MIC
Procedure, shortened: as §3

[15] = test system: Pasteurella hemolytica 23C; test: MIC, broth-dilution microtiter test (Table VII); format: cell-based; conditions: Pasteurella, P. hemolytica 23C, read-out: MIC
Procedure, shortened: as §4

[16] = test system: Pasteurella multocida 17E; test: MIC, broth-dilution microtiter test (Table VII); format: cell-based; conditions: Pasteurella multocida; P. multocida 17E, bovine isolate; broth-dilution microtiter; read-out: MIC
Procedure, shortened: as §3

[17] = test system: Pasteurella multocida 22A; test: MIC, broth-dilution microtiter test (Table VII); format: cell-based; conditions: Pasteurella multocida; P. multocida 22A; broth-dilution microtiter; read-out: MIC
Procedure, shortened: as §3

[18] = test system: Mycoplasma synoviae; test: MIC, broth-dilution microtiter test (Table VII); format: cell-based; conditions: Mycoplasmopsis synoviae; M. synoviae; broth-dilution microtiter; read-out: MIC
Method: as §1

[19] = test system: Pasteurella hemolytica 41D; test: MIC, broth-dilution microtiter test (Table VII); format: cell-based; conditions: Pasteurella, P. hemolytica 41D, read-out: MIC
Procedure, shortened: as §4

[20] = test system: Pasteurella multocida; test: Protection of one-day-old chicks against Pasteurella multocida infection (Table IX); format: in vivo; conditions: subcutaneous 30 mg/kg × 2, 1 and 4 hours post-challenge
Method: The C-23 modified derivatives of OMT have also shown in vivo antibacterial activity against infections induced by gram-negative bacteria. Table IX summarizes the results of tests in which illustrative compounds were evaluated against Pasteurella infections in one-day-old chicks. The compounds were administered by subcutaneous injection at a dosage of 30 mg/kg, 1 and 4 hours post-challenge of the chicks with Pasteurella multocida (0.1 ml of a twenty-hour tryptose broth culture of an avian P. multocida given subcutaneously). In the tests, all ten non-medicated infected chicks died within 24 hours of Pasteurella challenge.

[21] = test system: Staphylococcus epidermidis EPI2; test: MIC, standard agar-dilution assay (Table V); format: cell-based; conditions: Staphylococcus epidermidis; S. epidermidis EPI2; agar dilution; read-out: MIC
Method: as §1

[22] = test system: Escherichia coli EC14; test: MIC, standard agar-dilution assay (Table V); format: cell-based; conditions: Escherichia coli
Procedure, shortened: (§5)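 Growth inhibition in liquid medium, in a routine microtiter broth-dilution series, gave the MIC against staphylococci and pasteurellae; the gram-negative enteric strain was tested by conventional agar dilution instead.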

[23] = test system: Streptococcus Group D X66; test: MIC, standard agar-dilution assay (Table V); format: cell-based
Method: as §1

[24] = test system: Staphylococcus aureus X1.1; test: MIC, standard agar-dilution assay (Table V); format: cell-based; conditions: Staphylococcus aureus, X1.1
Method: as §1

[25] = test system: Streptococcus Group 9960; test: MIC, standard agar-dilution assay (Table V); format: cell-based; conditions: GROUP9960; Streptococcus Group 9960; agar dilution; read-out: MIC
Method: as §1

[26] = test system: Staphylococcus aureus S13E; test: MIC, standard agar-dilution assay (Table V); format: cell-based; conditions: Staphylococcus aureus, S13E
Method: as §1

[27] = test system: Klebsiella pneumoniae X26; test: MIC, standard agar-dilution assay (Table V); format: cell-based; conditions: Klebsiella pneumoniae, X26
Method: as §1

[28] = test system: Staphylococcus aureus X400; test: MIC, standard agar-dilution assay (Table V); format: cell-based; conditions: Staphylococcus aureus
Method: as §1

[29] = test system: Staphylococcus epidermidis EPI1; test: MIC, standard agar-dilution assay (Table V); format: cell-based; conditions: Staphylococcus epidermidis
Method: as §1

[30] = test system: Staphylococcus aureus V41; test: MIC, standard agar-dilution assay (Table V); format: cell-based; conditions: Staphylococcus aureus
Method: as §1

[31] = test system: Escherichia coli N10; test: MIC, standard agar-dilution assay (Table V); format: cell-based; conditions: Escherichia coli
Procedure, shortened: as §5

[32] = test system: Klebsiella pneumoniae KAE; test: MIC, standard agar-dilution assay (Table V); format: cell-based; conditions: Klebsiella pneumoniae
Procedure, shortened: as §5

[33] = test system: Shigella sonnei N9; test: MIC, standard agar-dilution assay (Table V); format: cell-based
Procedure, shortened: as §5

[34] = test system: Streptococcus pyogenes C203; test: ED50 in mice experimentally infected with S. pyogenes C203 (Table VIII); format: in vivo
Method: The C-23 modified derivatives of OMT of this invention have shown in vivo antimicrobial activity against experimental infections. When two doses of test compound were administered to mice experimentally infected with a gram-positive bacterium, S. pyogenes C203, the activity observed was measured as an ED50 value [effective dose in mg/kg to protect 50% of the test animals: see Warren Wick, et al., J. Bacteriol. 81, 233-235 (1961)].

[35] = C203, sc, mice, subcutaneous, doses given 1 and 4 hours postinfection, read-out: ED50, Subcutaneous

CCC1OC(=O)CC(O)C(C)C(OC2OC(C)C(O)C(N(C)C)C2O)C(CC=O)CC(C)C(=O)C=CC(C)=CC1CSc1nnc(C)o1 (centres unmarked) [Compound 4]
activity against these strains [1]: did not show activity
MIC [2]: 0.06 µg/mL (≈ 0.0862 µM)
MIC [3]: 32 µg/mL (≈ 46 µM)
MIC [4]: 4 µg/mL (≈ 5.75 µM)
MIC [5]: 0.25 µg/mL (≈ 0.359 µM)
MIC [6]: 4 µg/mL (≈ 5.75 µM)
MIC [7]: 6.25 µg/mL (≈ 8.98 µM)
MIC [8]: 12.5 µg/mL (≈ 18 µM)
MIC [9]: 1.56 µg/mL (≈ 2.24 µM)
MIC [10]: 6.25 µg/mL (≈ 8.98 µM)
MIC [11]: 0.39 µg/mL (≈ 0.56 µM)
MIC [12]: 0.39 µg/mL (≈ 0.56 µM)
MIC [13]: 6.25 µg/mL (≈ 8.98 µM)
MIC [14]: 3.12 µg/mL (≈ 4.48 µM)
MIC [15]: 12.5 µg/mL (≈ 18 µM)
MIC [16]: 6.25 µg/mL (≈ 8.98 µM)
MIC [17]: 6.25 µg/mL (≈ 8.98 µM)
MIC [18]: 0.78 µg/mL (≈ 1.12 µM)
MIC [19]: 12.5 µg/mL (≈ 18 µM)
Number of deaths/number treated [20]: 8/10
MIC [21]: 0.5 µg/mL (≈ 0.719 µM)
MIC ([22]; E. coli EC14, agar dilution, read-out: MIC): > 128 µg/mL
MIC ([23]; Streptococcus Group D X66, agar dilution, read-out: MIC): 0.5 µg/mL (≈ 0.719 µM)
MIC [24]: 0.25 µg/mL (≈ 0.359 µM)
MIC [25]: 0.5 µg/mL (≈ 0.719 µM)
MIC [26]: 0.25 µg/mL (≈ 0.359 µM)
MIC [27]: 8 µg/mL (≈ 11.5 µM)
MIC ([28]; S. aureus X400, methicillin-resistant strain, agar dilution, read-out: MIC): 0.5 µg/mL (≈ 0.719 µM)
MIC ([29]; S. epidermidis EPI1, agar dilution, read-out: MIC): 0.25 µg/mL (≈ 0.359 µM)
MIC ([30]; S. aureus V41, penicillin-resistant strain, agar dilution, read-out: MIC): 0.5 µg/mL (≈ 0.719 µM)
MIC ([31]; E. coli N10, agar dilution, read-out: MIC): > 128 µg/mL
MIC ([32]; K. pneumoniae KAE, agar dilution, read-out: MIC): > 128 µg/mL
MIC [33]: 64 µg/mL (≈ 92 µM)
ED50 ([34]; C203, po, read-out: ED50, Oral): > 100 mg/kg
ED50 [34, 35]: 12.6 mg/kg

CCC1OC(=O)CC(O)C(C)C(OC2OC(C)C(O)C(N(C)C)C2O)C(CC=O)CC(C)C(=O)C=CC(C)=CC1CSc1n[nH]c(=O)c(=O)n1C (centres unmarked) [Compound 6, 23-Deoxo-23-(1H-5,6-dioxo-4-methyl-1,2,4-triazin-3-yl)thio-OMT]
activity against these strains [1]: did not show activity
MIC [3]: > 128 µg/mL
MIC [4]: 32 µg/mL (≈ 43.3 µM)
MIC [5]: 1 µg/mL (≈ 1.35 µM)
MIC [6]: 32 µg/mL (≈ 43.3 µM)
MIC [7]: 25 µg/mL (≈ 33.8 µM)
MIC [8]: 50 µg/mL (≈ 67.7 µM)
MIC [9]: 12.5 µg/mL (≈ 16.9 µM)
MIC [10]: 25 µg/mL (≈ 33.8 µM)
MIC [11]: 6.25 µg/mL (≈ 8.46 µM)
MIC [12]: 6.25 µg/mL (≈ 8.46 µM)
MIC [13]: 25 µg/mL (≈ 33.8 µM)
MIC [14]: 25 µg/mL (≈ 33.8 µM)
MIC [15]: 50 µg/mL (≈ 67.7 µM)
MIC [16]: 25 µg/mL (≈ 33.8 µM)
MIC [17]: 25 µg/mL (≈ 33.8 µM)
MIC [18]: 3.12 µg/mL (≈ 4.22 µM)
MIC [19]: 50 µg/mL (≈ 67.7 µM)
MIC [21]: 8 µg/mL (≈ 10.8 µM)
MIC ([22]; EC14): > 128 µg/mL
MIC [23]: 16 µg/mL (≈ 21.7 µM)
MIC [24]: 4 µg/mL (≈ 5.41 µM)
MIC [25]: 16 µg/mL (≈ 21.7 µM)
MIC [26]: 4 µg/mL (≈ 5.41 µM)
MIC [27]: 64 µg/mL (≈ 86.6 µM)
MIC ([28]; X400): 8 µg/mL (≈ 10.8 µM)
MIC ([29]; EPI1): 4 µg/mL (≈ 5.41 µM)
MIC ([30]; V41): 4 µg/mL (≈ 5.41 µM)
MIC ([31]; N10): > 128 µg/mL
MIC [32]: > 128 µg/mL
MIC [33]: > 128 µg/mL
ED50 ([34]; C203, po, read-out: ED50, Oral): > 100 mg/kg
ED50 [34, 35]: 13.6 mg/kg
